Laboratory results reported in ChEMBL document CHEMBL5223182, “Inhibition of HIV-1 Protease by a Boronic Acid with High Oxidative Stability” (ACS Med Chem Lett, 2023).

Assays:
[1] = Oxidative stability in sodium phosphate buffer assessed as relative rate constant; format: physicochemical
[2] = Oxidative stability of compound in PBS by UV visible spectrophotometer analysis; format: physicochemical; settings: buffer
[3] = biological target: T1, Human immunodeficiency virus type 1 protease (Human immunodeficiency virus 1, UniProt Q72874); experiment: Inhibition of HIV-1 protease by fluorescence assay
[4] = Oxidative stability in sodium phosphate buffer assessed as observed rate constant; format: physicochemical
[5] = biological target: T1, Human immunodeficiency virus type 1 protease; experiment: Inhibition of HIV-1 protease
[6] = biological target: Protease (Human immunodeficiency virus 1, UniProt Q9YQ12, D30N); experiment: Inhibition of HIV-1 protease D30N mutant
Protease, sequence (Q9YQ12 entry or part of it D30N): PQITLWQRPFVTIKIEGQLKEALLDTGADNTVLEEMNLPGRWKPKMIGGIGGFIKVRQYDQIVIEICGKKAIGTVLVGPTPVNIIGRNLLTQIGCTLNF

CC(C)CN(C[C@@H](O)[C@H](Cc1ccccc1)NC(=O)O[C@H]1CO[C@H]2OCC[C@H]21)S(=O)(=O)c1ccc(B(O)O)cc1
K [1]: 1
K [2]: 2.4 M⁻¹ s⁻¹
Ki [3]: 0.5 pM
K [4]: 0.12 M⁻¹ s⁻¹

CC(C)CN(C[C@@H](O)[C@H](Cc1ccccc1)NC(=O)O[C@H]1CO[C@H]2OCC[C@H]21)S(=O)(=O)c1ccc2c(c1)C(=O)O[B-]2(O)O
K [1]: 0.021
K [2]: 0.00015 M⁻¹ s⁻¹
Ki [5]: 10 pM
K [4]: 0.0026 M⁻¹ s⁻¹
Ki [6]: 7 pM
